Experimental data: patent US20230190760A1, “ADVANTAGEOUS THERAPIES FOR DISORDERS MEDIATED BY IKAROS OR AIOLOS” (C4 Therapeutics, Inc., priority 2020, published 2023)

Columns and labels:
[1] = tested on: Caspase 3/7 activity in TMD8 cells; assay: Apoptosis induction, Caspase 3/7 activity in TMD8 cells
Description: 30 μL TMD8 cells were seeded into the 384-well plates in RPMI medium containing 10% FBS at a cell density of 2000 cells per well. Cells treated in the absence of the test compound were the negative control. Following compound treatment, cells were incubated at 37° C. with 5% CO2 for 48 hr. 30 μL reconstituted Caspase 3/7 Assay detection reagent was added to each well and luminescence was acquired on EnVision™ Multilabel Reader (PerkinElmer, Santa Clara, Calif., USA).

[2] = Plasma PK and interconversion in rat; format: in vivo; details: Compound 1 30 mg/kg PO
Description: Compound 1 was administered to a rat at a concentration of 30 mg/kg PO and monkeys at a concentration of either 60 μg/kg or 100 μg/kg PO. At the indicated timepoints shown in FIG. 25A and FIG. 25B, plasma samples were collected and the Cmax, half-life, and AUC0-inf were determined for both Compound 1 and a metabolite of Compound 1, Compound 14. The percent of Compound 14 was also determined (Table 13). PK values dose normalized to 1 mg/kg. FIG. 25A is a graph measuring the concentration of Compound 1 or Compound 14 over the course of 24 hours in monkeys administered 100 μg/kg or 60 μg/kg of Compound 1. FIG. 25B is a graph measuring the concentration of Compound 1 or Compound 14 over the course of 24 hours in a rat administered 30 mg/kg of Compound 1.

[3] = tested on: RL; assay: Anti-proliferative activity, 96 hours; details: Homo sapiens
[4] = tested on: Interferon-response proteins in DL-40 ALCL xenograft tumors; assay: Global proteomics and gene ontology of DL-40 ALCL xenograft tumors, 48 hours after dose; format: in vivo, mice; design: Log2 vs Vehicle, 0AS1: dose or concentration left out as unconfirmed
Description: […] Gene ontology analysis was done by using BINGO, a Java-based tool that is implemented as a plugin for Cytoscape. Default settings were used to assess the overexpression of GO categories and the interactions among altered proteins were determined using the STRING database, with a cutoff score of 700.

[5] = tested on: DL40; assay: Anti-proliferative activity, 96 hours

## O=C1CC[C@H](N2C(=O)c3cccc4c(Cc5ccc(CN6CCOCC6)cc5)ccc2c34)C(=O)N1 (single isomer, unassigned) [Compound 1]
[1]; 48 hr
  Maximum caspase 3/7 activity: > 8 fold
[1]; FIG. 51
  activity level of caspase-3 and caspase-7 increased: more than 800%
[1]; Homo sapiens, TMD8, 48 h, read-out: EC50, caspase 3/7 activity
  EC50: 2.7 nM
[2]; dose normalized to 1 mg/kg
  AUC(0-inf): 784 ng·h/mL
  Cmax: 110 ng/mL
[2]; read-out: T ½ (converted)
  half-life: 2.3 h
[3]
  IC50: 2.32 nM
[4]; 0.1 nM for 48 hr
  Log2 vs Vehicle, AAAS: 0.043
  Log2 vs Vehicle, ABCE1: −0.112
  Log2 vs Vehicle, ADAR: 0.065
  Log2 vs Vehicle, ARIHI: 0.023
  Log2 vs Vehicle, B2M: −0.048
  Log2 vs Vehicle, BST2: 0.241
  Log2 vs Vehicle, CAMK2A: −0.697
  Log2 vs Vehicle, CAMK2B: 0.054
  Log2 vs Vehicle, CAMK2D: 0.038
  Log2 vs Vehicle, CAMK2G: −0.054
  Log2 vs Vehicle, CD44: −0.377
  Log2 vs Vehicle, CIITA: −0.076
  Log2 vs Vehicle, DDX58: 0.455
  Log2 vs Vehicle, EIF2AK2: 0.527
  Log2 vs Vehicle, EIF4A1: 0.13
  Log2 vs Vehicle, EIF4A2: 0.08
  Log2 vs Vehicle, EIF4A3: 0.079
  Log2 vs Vehicle, EIF4E2: 0.179
  Log2 vs Vehicle, EIF4E3: 0.208
  Log2 vs Vehicle, EIF4G1: −0.048
  Log2 vs Vehicle, EIF4G2: −0.071
  Log2 vs Vehicle, EIF4G3: −0.108
  Log2 vs Vehicle, FLNA: 1.179
  Log2 vs Vehicle, FLNB: 0.234
  Log2 vs Vehicle, GBP1: 0.343
  Log2 vs Vehicle, GBP2: −0.269
  Log2 vs Vehicle, GBP4: 0.388
  Log2 vs Vehicle, HERC5: −0.149
  Log2 vs Vehicle, HLA-A: −0.128
  Log2 vs Vehicle, HLA-B: 0.066
  Log2 vs Vehicle, HLA-C: −0.065
  Log2 vs Vehicle, HLA-DPA1: −0.139
  Log2 vs Vehicle, HLA-DPB1: −0.023
  Log2 vs Vehicle, HLA-DQA2: −0.144
  Log2 vs Vehicle, HLA-DQB1: 0.055
  Log2 vs Vehicle, HLA-DRA: −0.133
  Log2 vs Vehicle, HLA-DRB1: −0.1
  Log2 vs Vehicle, HLA-E: −0.167
  Log2 vs Vehicle, HLA-F: 0.408
  Log2 vs Vehicle, ICAM1: 0.31
  Log2 vs Vehicle, IFI30: 0.217
  Log2 vs Vehicle, IFI35: 0.153
  Log2 vs Vehicle, IFIT2: −0.186
  Log2 vs Vehicle, IFIT3: 0.736
  Log2 vs Vehicle, IR.F9: 0.535
  Log2 vs Vehicle, IRF1: 0.147
  Log2 vs Vehicle, IRF2: −0.265
  Log2 vs Vehicle, IRF3: 0.114
  Log2 vs Vehicle, IRF4: −0.452
  Log2 vs Vehicle, IRF5: 0.192
  Log2 vs Vehicle, IRF7: 0.264
  Log2 vs Vehicle, ISG15: 0.241
  Log2 vs Vehicle, ISG20: −0.168
  Log2 vs Vehicle, J A KI: 0.036
  Log2 vs Vehicle, KPNA1: 0.045
  Log2 vs Vehicle, KPNA2: 0.058
  Log2 vs Vehicle, KPNA3: 0
  Log2 vs Vehicle, KPNA4: 0.075
  Log2 vs Vehicle, KPNB1: 0.038
  Log2 vs Vehicle, MAPK3: −0.042
  Log2 vs Vehicle, MT2A: −0.297
  Log2 vs Vehicle, MX1: 1.715
  Log2 vs Vehicle, MX2: 0.83
  Log2 vs Vehicle, NCAM1: −0.127
  Log2 vs Vehicle, NDC1: −0.063
  Log2 vs Vehicle, NEDD4: 0.375
  Log2 vs Vehicle, NUP35: −0.023
  Log2 vs Vehicle, NUP37: −0.009
  Log2 vs Vehicle, NUP43: −0.042
  Log2 vs Vehicle, NUP50: −0.009
  Log2 vs Vehicle, NUP54: 0.014
  Log2 vs Vehicle, NUP62: −0.019
  Log2 vs Vehicle, NUP85: −0.05
  Log2 vs Vehicle, NUP88: 0.031
  Log2 vs Vehicle, NUP93: 0.029
  Log2 vs Vehicle, NUP107: 0.033
  Log2 vs Vehicle, NUP133: −0.019
  Log2 vs Vehicle, NUP153: −0.013
  Log2 vs Vehicle, NUP155: 0.001
  Log2 vs Vehicle, NUP160: 0.026
  Log2 vs Vehicle, NUP188: 0.029
  Log2 vs Vehicle, NUP205: −0.001
  Log2 vs Vehicle, NUP210: 0.045
  Log2 vs Vehicle, NUP214: −0.08
  Log2 vs Vehicle, NUPL2: 0.073
  Log2 vs Vehicle, OAS2: 0.478
  Log2 vs Vehicle, OAS3: 0.884
  Log2 vs Vehicle, OASL: 0.111
  Log2 vs Vehicle, P0M121: −0.05
  Log2 vs Vehicle, P0M121C: −0.039
  Log2 vs Vehicle, PDE12: 0.013
  Log2 vs Vehicle, PIAS1: −0.114
  Log2 vs Vehicle, PINI: 0.05
  Log2 vs Vehicle, PLCG1: 0.052
  Log2 vs Vehicle, PML: 0.176
  Log2 vs Vehicle, PPM1B: −0.001
  Log2 vs Vehicle, PRKCD: 0.506
  Log2 vs Vehicle, PSMB8: 0.021
  Log2 vs Vehicle, PTPN1: 0.009
  Log2 vs Vehicle, PTPN6: 0.402
  Log2 vs Vehicle, PTPN11: 0.001
  Log2 vs Vehicle, RAE1: −0.034
  Log2 vs Vehicle, RANBP2: −0.044
  Log2 vs Vehicle, RNASEL: −0.218
  Log2 vs Vehicle, RPS27A: −0.054
  Log2 vs Vehicle, SAMHD1: 0.128
  Log2 vs Vehicle, SP100: −0.028
  Log2 vs Vehicle, STAT1: 0.218
  Log2 vs Vehicle, STAT2: 0.271
  Log2 vs Vehicle, TPR: −0.053
  Log2 vs Vehicle, TRIM5: 0.107
  Log2 vs Vehicle, TRIM14: 0.183
  Log2 vs Vehicle, TRIM21: 0.175
  Log2 vs Vehicle, TRIM22: 0.331
  Log2 vs Vehicle, TRIM25: 0.161
  Log2 vs Vehicle, TRIM26: 0.019
  Log2 vs Vehicle, TRIM35: 0.144
  Log2 vs Vehicle, TRIM38: 0.119
  Log2 vs Vehicle, TYK2: −0.039
  Log2 vs Vehicle, UBA7: 0.366
  Log2 vs Vehicle, UBE2E1: −0.218
  Log2 vs Vehicle, UBE2L6: 0.13
  Log2 vs Vehicle, UBE2N: 0.02
  Log2 vs Vehicle, VCAM1: −0.744
[4]; 48 hours after oral 100 μg/kg
  network impacted (gene ontology): Interferon (IFN) signaling was the most prominent network impacted
[4]; for 48 hr
  Log2 vs Vehicle, 0AS1: 1.414
[5]
  IC50: 0.91 nM
